Among the data in patent US8697694B2, “Substituted pyridine and pyrimidine derivatives and their use in treating viral infections” (priority 2008, dated 2014) are EC90 values, retold here.

In the first assay the test system is HCV replicon cells. The assay can be described thus: Cell-based HCV replicon assay (replicon RNA level by real time PCR, Taqman). To be noted: Hepatitis C virus, 72 h, HCV replicon cells, harvested on day 3, replicon RNA by real time PCR; calculated EC90 reported as range class; read-out: EC90 (μM) range. In short, it runs like this: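 HCV replicon cells treated 3 days with 10 serial 2-fold compound dilutions (top 25 μM to 1 μM; 0.5% DMSO, 10% FBS). Replicon RNA quantified by multiplex Taqman RT-PCR (NS5B amplicon, GAPDH control); EC50 and EC90 = concentrations giving ΔCT of 1 and 3.2 over baseline.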
As for `COc1cc(CNc2nc(C)c(-c3nc4ccccc4s3)c(N[C@@H]3C[C@H](CO)[C@@H](O)[C@H]3O)n2)cc(OC)c1` [Example 701], the EC90 (as a rule, the concentration at which the effect reaches the 90% level) was under 0.5 µM.

As to `CCc1cc2cc(-c3c(C)nc(NCc4cc(C)on4)nc3N[C@@H]3C[C@H](CO)[C@H]4OC(C)(C)O[C@H]43)oc2cn1` [Example 702], the EC90 was under 0.5 µM.

On to `CCc1cc2cc(-c3c(C)nc(NCc4cc(C)on4)nc3N[C@@H]3C[C@H](CO)[C@@H](O)[C@H]3O)oc2cn1` [Example 703], for which the EC90 was under 0.5 µM.

Consider `CCc1cc2cc(-c3c(C)nc(NCc4ccco4)nc3N[C@@H]3C[C@H](CO)[C@H]4OC(C)(C)O[C@H]43)oc2cn1` [Example 704], for which the EC90 was under 0.5 µM.

As to `CCc1cc2cc(-c3c(C)nc(NCc4ccco4)nc3N[C@@H]3C[C@H](CO)[C@@H](O)[C@H]3O)oc2cn1` [Example 705], the EC90 is under 0.5 µM.

As for `Cc1csc(CNc2nc(C)c(-c3nc4ccccc4s3)c(N[C@@H]3C[C@H](CO)[C@@H](O)[C@H]3O)n2)n1` [Example 707], the EC90 was under 0.5 µM.

Turning to `COc1ccc(CNc2nc(C)c(-c3nc4ccccc4s3)c(N[C@@H]3C[C@H](CO)[C@H]4OC(C)(C)O[C@H]43)n2)cc1OC` [Example 708], the EC90 was under 0.5 µM.

For the compound `COc1ccc(CNc2nc(C)c(-c3nc4ccccc4s3)c(N[C@@H]3C[C@H](CO)[C@@H](O)[C@H]3O)n2)cc1OC` [Example 709], the EC90 is under 0.5 µM.

Take `COc1cc(CNc2nc(C)c(-c3nc4ccccc4s3)c(N[C@@H]3C[C@H](CO)[C@H]4OC(C)(C)O[C@H]43)n2)cc(OC)c1OC` [Example 710]: the EC90 is under 0.5 µM.

As for `COc1cc(CNc2nc(C)c(-c3nc4ccccc4s3)c(N[C@@H]3C[C@H](CO)[C@@H](O)[C@H]3O)n2)cc(OC)c1OC` [Example 711], the EC90 was under 0.5 µM.

With `Cc1cc(C)cc(CNc2nc(C)c(-c3nc4ccccc4s3)c(N[C@@H]3C[C@H](CO)[C@H]4OC(C)(C)O[C@H]43)n2)c1` [Example 712], the EC90 was under 0.5 µM.

Take `Cc1cc(C)cc(CNc2nc(C)c(-c3nc4ccccc4s3)c(N[C@@H]3C[C@H](CO)[C@@H](O)[C@H]3O)n2)c1` [Example 713]: the EC90 was under 0.5 µM.

Turning to `COCc1cc2cc(-c3c(C)nc(NCC(C)(C)C)nc3N[C@@H]3C[C@H](CO)[C@H]4OC(C)(C)O[C@H]43)oc2cn1` [Example 714], the EC90 is 0.5 to 5 µM.

For the compound `COCc1cc2cc(-c3c(C)nc(NCC(C)(C)C)nc3N[C@@H]3C[C@H](CO)[C@@H](O)[C@H]3O)oc2cn1` [Example 715], the EC90 is under 0.5 µM.

As for `Cc1nc(NCc2ncccn2)nc(N[C@@H]2C[C@H](CO)[C@@H](O)[C@H]2O)c1-c1nc2ccccc2s1` [Example 717], the EC90 is under 0.5 µM.

Still in this assay, the particulars now being: Hepatitis C virus, 72 h, HCV replicon cells, replicon RNA level by real time PCR (Taqman), harvested on day 3; calculated EC90 reported as range class; read-out: EC90 (μM) range.
In the case of `Cc1nc(NCC2CC2)nc(N[C@@H]2C[C@H](CO)[C@@H](O)[C@H]2O)c1-c1nc2ccccc2o1` [Example 528], the EC90 was 0.5 to 5 µM.

Take `CCOCCNc1nc(C)c(-c2nc3ccccc3o2)c(N[C@@H]2C[C@H](CO)[C@@H](O)[C@H]2O)n1` [Example 529]: the EC90 is under 0.5 µM.

Regarding `Cc1nc(NCC2CC2)nc(N[C@@H]2C[C@H](CO)[C@@H](O)[C@H]2O)c1-c1nc2ccccc2n1C` [Example 530], the EC90 is over 5 µM.

For the compound `CCOCCNc1nc(C)c(-c2nc3ccccc3n2C)c(N[C@@H]2C[C@H](CO)[C@@H](O)[C@H]2O)n1` [Example 531], the EC90 is over 5 µM.

On to `Cc1nc(NCC(F)(F)F)nc(N[C@@H]2C[C@H](CO)[C@@H](O)[C@H]2O)c1-c1nc2cnccc2s1` [Example 532], for which the EC90 is under 0.5 µM.

For `Cc1nc(N(C)C)nc(N[C@@H]2C[C@H](CO)[C@@H](O)[C@H]2O)c1-c1nc2cnccc2s1` [Example 533], the EC90 was over 5 µM.

For `Cc1nc(NC2CC2)nc(N[C@@H]2C[C@H](CO)[C@@H](O)[C@H]2O)c1-c1nc2cnccc2s1` [Example 534], the EC90 was under 0.5 µM.

Consider `CCOCCNc1nc(C)c(-c2nc3c(C)nccc3s2)c(N[C@@H]2C[C@H](CO)[C@@H](O)[C@H]2O)n1` [Example 535], for which the EC90 is under 0.5 µM.

As for `Cc1nc(NCC(C)(C)C)nc(N[C@@H]2C[C@H](CO)[C@@H](O)[C@H]2O)c1-c1nc2cnccc2s1` [Example 536], the EC90 was under 0.5 µM.

As for `COc1cc(CNc2nc(C)c(-c3nc4cnccc4s3)c(N[C@@H]3C[C@H](CO)[C@@H](O)[C@H]3O)n2)cc(OC)c1` [Example 537], the EC90 was under 0.5 µM.

For `Cc1cc(CNc2nc(C)c(-c3nc4cnccc4s3)c(N[C@@H]3C[C@H](CO)[C@@H](O)[C@H]3O)n2)on1` [Example 538], the EC90 was under 0.5 µM.

Consider `Cc1ccc(CNc2nc(C)c(-c3nc4cnccc4s3)c(N[C@@H]3C[C@H](CO)[C@@H](O)[C@H]3O)n2)s1` [Example 539], for which the EC90 is under 0.5 µM.

With `Cc1nc(NCc2ccccc2)nc(N[C@@H]2C[C@H](CO)[C@@H](O)[C@H]2O)c1-c1nc2cnccc2s1` [Example 540], the EC90 is under 0.5 µM.

With `Cc1nc(NCc2nccs2)nc(N[C@@H]2C[C@H](CO)[C@@H](O)[C@H]2O)c1-c1nc2cnccc2s1` [Example 541], the EC90 is under 0.5 µM.

`Cc1nc(N[C@H](C)c2ccccc2)nc(N[C@@H]2C[C@H](CO)[C@@H](O)[C@H]2O)c1-c1nc2cnccc2s1` [Example 543]: the EC90 was under 0.5 µM.

In the case of `Cc1ccc([C@@H](C)Nc2nc(C)c(-c3nc4cnccc4s3)c(N[C@@H]3C[C@H](CO)[C@@H](O)[C@H]3O)n2)cc1` [Example 544], the EC90 is under 0.5 µM.

As for `CCOCCNc1nc(C)c(-c2nc3cc(OC(F)F)c(OC(F)F)cc3s2)c(N[C@@H]2C[C@H](CO)[C@H]3OC(C)(C)O[C@H]32)n1` [Example 1001], the EC90 is over 5 µM.

With `CCOCCNc1nc(C)c(-c2nc3cc(OC(F)F)c(OC(F)F)cc3s2)c(N[C@@H]2C[C@H](CO)[C@@H](O)[C@H]2O)n1` [Example 1002], the EC90 is 0.5 to 5 µM.

With `COCCNc1nc(C)c(-c2nc3cc(OC(F)F)c(OC(F)F)cc3s2)c(N[C@@H]2C[C@H](CO)[C@H]3OC(C)(C)O[C@H]32)n1` [Example 1003], the EC90 was over 5 µM.

For the compound `COCCNc1nc(C)c(-c2nc3cc(OC(F)F)c(OC(F)F)cc3s2)c(N[C@@H]2C[C@H](CO)[C@@H](O)[C@H]2O)n1` [Example 1004], the EC90 is 0.5 to 5 µM.

On to `Cc1nc(NCC2CC2)nc(N[C@@H]2C[C@H](CO)[C@H]3OC(C)(C)O[C@H]32)c1-c1nc2cc(OC(F)F)c(OC(F)F)cc2s1` [Example 1005], for which the EC90 was over 5 µM.

For the compound `Cc1nc(NCC2CC2)nc(N[C@@H]2C[C@H](CO)[C@@H](O)[C@H]2O)c1-c1nc2cc(OC(F)F)c(OC(F)F)cc2s1` [Example 1006], the EC90 is 0.5 to 5 µM.

Consider `Cc1nc(Nc2ccccc2)nc(N[C@@H]2C[C@H](CO)[C@@H](O)[C@H]2O)c1-c1nc2ccccc2s1` [Example 1007], for which the EC90 is 0.5 to 5 µM.

With `CCOCCNc1nc(C)c(-c2nc3cc(OC)ccc3s2)c(N[C@@H]2C[C@H](CO)[C@@H](O)[C@H]2O)n1` [Example 1008], the EC90 was 0.5 to 5 µM.

On to `COCCNc1nc(C)c(-c2nc3cc(OC)ccc3s2)c(N[C@@H]2C[C@H](CO)[C@@H](O)[C@H]2O)n1` [Example 1009], for which the concentration for an effect of 90% (EC90) is 0.5 to 5 µM.

As for `COc1ccc2sc(-c3c(C)nc(NCC(F)(F)F)nc3N[C@@H]3C[C@H](CO)[C@@H](O)[C@H]3O)nc2c1` [Example 1010], the EC90 was 0.5 to 5 µM.

On to `Cc1nc(NCC(=O)O)nc(N[C@@H]2C[C@H](CO)[C@@H](O)[C@H]2O)c1-c1nc2ccccc2s1` [Example 1011], for which the EC90 is 0.5 to 5 µM.

Turning to `Cc1nc(NCCC(=O)O)nc(N[C@@H]2C[C@H](CO)[C@@H](O)[C@H]2O)c1-c1nc2ccccc2s1` [Example 1012], the concentration for an effect of 90% (EC90) was over 5 µM.

On to `Cc1nc(Nc2nccs2)nc(N[C@@H]2C[C@H](CO)[C@@H](O)[C@H]2O)c1-c1nc2ccccc2s1` [Example 1013], for which the EC90 is 0.5 to 5 µM.

For the compound `Cc1nc(NCC(C)(C)O)nc(N[C@@H]2C[C@H](CO)[C@@H](O)[C@H]2O)c1-c1nc2ccccc2s1` [Example 1014], the EC90 is under 0.5 µM.

Take `Cc1nc(NCC(F)(F)F)nc(N[C@@H]2C[C@H](CN3CCOCC3)[C@@H](O)[C@H]2O)c1-c1nc2ccccc2s1` [Example 1015]: the EC90 is 0.5 to 5 µM.

`Cc1nc(NCC(F)(F)F)nc(N[C@@H]2C[C@H](CN(C)C)[C@@H](O)[C@H]2O)c1-c1nc2ccccc2s1` [Example 1016]: the EC90 was 0.5 to 5 µM.

As to `Cc1nc(NCC(F)(F)F)nc(N[C@@H]2C[C@H](CN3CCCC3)[C@@H](O)[C@H]2O)c1-c1nc2ccccc2s1` [Example 1017], the EC90 is 0.5 to 5 µM.

Take `CCNC[C@H]1C[C@@H](Nc2nc(NCC(F)(F)F)nc(C)c2-c2nc3ccccc3s2)[C@H](O)[C@@H]1O` [Example 1018]: the EC90 is 0.5 to 5 µM.

Consider `CCOCCNc1nc(C)c(-c2nc3ccccc3s2)c(N[C@@H]2C[C@H](C(F)F)[C@@H](O)[C@H]2O)n1` [Example 1019], for which the EC90 is under 0.5 µM.

Take `CCOCCCNc1nc(C)c(-c2nc3ccccc3s2)c(N[C@@H]2C[C@H](CO)[C@@H](O)[C@H]2O)n1` [Example 1041]: the EC90 was 0.5 to 5 µM.

On to `Cc1nc(Nc2cccc(F)c2)nc(N[C@@H]2C[C@H](CO)[C@@H](O)[C@H]2O)c1-c1nc2ccccc2s1` [Example 1042], for which the 90% effect concentration (EC90) is over 5 µM.

`Cc1nc(Nc2ccccc2F)nc(N[C@@H]2C[C@H](CO)[C@@H](O)[C@H]2O)c1-c1nc2ccccc2s1` [Example 1043]: the concentration for an effect of 90% (EC90) was over 5 µM.

On to `Cc1nc(Nc2ccc(F)cc2)nc(N[C@@H]2C[C@H](CO)[C@@H](O)[C@H]2O)c1-c1nc2ccccc2s1` [Example 1044], for which the EC90 was 0.5 to 5 µM.

`Cc1ccc(Nc2nc(C)c(-c3nc4ccccc4s3)c(N[C@@H]3C[C@H](CO)[C@@H](O)[C@H]3O)n2)cc1` [Example 1045]: the EC90 is over 5 µM.

`Cc1cccc(Nc2nc(C)c(-c3nc4ccccc4s3)c(N[C@@H]3C[C@H](CO)[C@@H](O)[C@H]3O)n2)c1` [Example 1046]: the EC90 was 0.5 to 5 µM.
